{
  "source": "patent US10377741B2",
  "about": "“Substituted heteroaryl aldehyde compounds and methods for their use in increasing tissue oxygenation” (Global Blood Therapeutics, Inc., priority 2011, dated 2019)",
  "data": [
    {"biological_target": "T1, purified Hemoglobin S (HbS) (Homo sapiens, UniProt P68871+P69905, E7V)", "T1 construct": "HbS was purified by a modified procedure; from tissue; host or cells: blood of homozygous sickle cell patients (CHORI); for the polymerization assay purified by the CRO VIRUSYS", "assay": "Modulation of hemoglobin oxygen affinity: oxygen equilibrium curves (HEMOX) in purified HbS", "assay_type": "biochemical, human (homozygous sickle cell patients)", "settings": "compound at 30 μM; 25 μM purified HbS, 45 min at 37° C.", "protocol": "(§1) Oxygen equilibrium curves (OEC) in purified Hemoglobin S (HbS) were measured by the change in p50, the partial pressure of oxygen at which the heme binding sites in the HbS sample are 50% saturated with oxygen. HbS was purified by a modified procedure (Antonini and Brunori, 1971; Heomoglobin and Myoglobin in their Reactions with Ligands; North Holland Publishing Company; Amsterdam, London) from blood obtained from homozygous sickle cell patients though the Hemoglobinopathy Center at Children's Hospital Oakland Research Institute (CHORI) with Institutional Review Board approval. Oxygen equilibrium curves were carried out with a HEMOX analyzer, (TCS Scientific, New Hope, Pa.). Five hundred μL of 250 μM purified HbS were diluted into 4.5 mL of HEMOX buffer (30 mM TES, 130 mM NaCl, 5 mM KCl, pH=7.4) resulting in a final hemoglobin concentration of 25 μM. The compounds were added at the final desired concentrations. The mixture was incubated for 45 min at 37° C. and then transferred to the Hemox sample chamber. The samples were saturated with oxygen by flushing with compressed air for 10 minutes. The samples were then flushed with pure nitrogen and the absorbance of deoxy-Hb was recorded as a function of the solution pO2. The oxygen equilibrium data was then fit to the Hill Model to obtain values for p50. The deoxygenation curves for both HbS alone (control) and HbS in the presence of compound were collected with the TCS software. The p50 for purified Hbs was typically 13.8±1.6. Delta p50 values were obtained from the p50 value for control minus the p50 value for HbS treated with compound divided by the p50 value for the control.\n(§2) The compounds of Table 1 that were where tested in the assay above were all found to have positive delta p50 values. Delta p50% is calculated from [[p50(HbS) −p50(HbS treated with compound)]/p50(HbS)]×100. Table 2 below lists the delta p50% values where + indicates a delta p50% of between 0 and 29, ++ indicates a delta p50% of between 30 and 50, and +++ indicates a delta p50% of 50 or greater. Unless noted otherwise, the compounds in Table 2 were tested at 30 μM.", "values": [
      {"smiles": "O=Cc1cnccc1OCc1cccnc1", "note": "[Compound 1, 4-(pyridin-3-ylmethoxy)nicotinaldehyde]", "delta p50%": "+ (a delta p50% of between 0 and 29)"},
      {"smiles": "O=Cc1cccnc1OCc1cccn2ccnc12", "note": "[Compound 3, 2-(imidazo[1,2-a]pyridin-8-ylmethoxy)nicotinaldehyde]", "delta p50%": "+ (a delta p50% of between 0 and 29)"},
      {"smiles": "O=Cc1ncccc1OCc1cccn2ccnc12", "note": "[Compound 4, 3-(imidazo[1,2-a]pyridin-8-ylmethoxy)picolinaldehyde]", "delta p50%": "+ (a delta p50% of between 0 and 29)"},
      {"smiles": "O=Cc1ccncc1OCc1cccn2ccnc12", "note": "[Compound 6, 3-(imidazo[1,2-a]pyridin-8-ylmethoxy)isonicotinaldehyde]", "delta p50%": "+ (a delta p50% of between 0 and 29)"},
      {"smiles": "O=Cc1ccncc1OCc1cccn2cncc12", "note": "[Compound 7, 3-(imidazo[1,5-a]pyridin-8-ylmethoxy)isonicotinaldehyde]", "delta p50%": "+ (a delta p50% of between 0 and 29)"},
      {"smiles": "COc1cc(C=O)c(OCc2cccnc2C)cn1", "note": "[Compound 38, 2-methoxy-5-((2-methylpyridin-3-yl)methoxy)isonicotinaldehyde]", "delta p50%": "+ (a delta p50% of between 0 and 29)"},
      {"smiles": "COc1cc(C=O)c(OCc2cnccc2C)cn1", "note": "[Compound 39, 2-methoxy-5-((4-methylpyridin-3-yl)methoxy)isonicotinaldehyde]", "delta p50%": "+ (a delta p50% of between 0 and 29)"},
      {"smiles": "COc1cc(C=O)c(OCc2ccc(C)nc2)cn1", "note": "[Compound 41, 2-methoxy-5-((6-methylpyridin-3-yl)methoxy)isonicotinaldehyde]", "delta p50%": "+ (a delta p50% of between 0 and 29)"},
      {"smiles": "COc1cc(C=O)c(OCc2cccnc2)cn1", "note": "[Compound 42, 2-methoxy-5-(pyridin-3-ylmethoxy)isonicotinaldehyde]", "delta p50%": "+ (a delta p50% of between 0 and 29)"},
      {"smiles": "COc1cc(C=O)c(OCc2ccncc2C)cn1", "note": "[Compound 47, 2-methoxy-5-((3-methylpyridin-4-yl)methoxy)isonicotinaldehyde]", "delta p50%": "+ (a delta p50% of between 0 and 29)"},
      {"smiles": "Cc1ccc(OCc2cccn3ccnc23)c(C=O)n1", "note": "[Compound 49, 3-(imidazo[1,2-a]pyridin-8-ylmethoxy)-6-methylpicolinaldehyde]", "delta p50%": "++ (a delta p50% of between 30 and 50)"},
      {"smiles": "COc1cc(C(O)OC)c(OCc2cccc3nccn23)cn1", "note": "(stereo not drawn) [Compound 50, (5-(imidazo[1,2-a]pyridin-5-ylmethoxy)-2-methoxypyridin-4-yl)(methoxy)methanol]", "delta p50%": "+ (a delta p50% of between 0 and 29)"},
      {"smiles": "O=Cc1ccncc1NC(=O)c1cccn2ccnc12", "note": "[Compound 51, N-(4-formylpyridin-3-yl)imidazo[1,2-a]pyridine-8-carboxamide]", "delta p50%": "+ (a delta p50% of between 0 and 29)"},
      {"smiles": "COc1cc(C=O)c(OCc2nc3ccccn3c2-c2ccn[nH]2)cn1", "note": "[Compound 59, 5-((3-(1H-pyrazol-5-yl)imidazo[1,2-a]pyridin-2-yl)methoxy)-2-methoxyisonicotinaldehyde]", "delta p50%": "+ (a delta p50% of between 0 and 29)"},
      {"smiles": "COc1cc(C=O)c(OCc2cn3cccc(-c4ccnn4C)c3n2)cn1", "note": "[Compound 61, 2-methoxy-5-((8-(1-methyl-1H-pyrazol-5-yl)imidazo[1,2-a]pyridin-2-yl)methoxy)isonicotinaldehyde]", "delta p50%": "+ (a delta p50% of between 0 and 29)"},
      {"smiles": "COc1cc(C=O)c(OCc2ccc(C#N)nc2)cn1", "note": "[Compound 62, 5-((4-formyl-6-methoxypyridin-3-yloxy)methyl)picolinonitrile]", "delta p50%": "+ (a delta p50% of between 0 and 29)"},
      {"smiles": "COc1cc(C=O)c(OCc2cccnc2C#N)cn1", "note": "[Compound 64, 3-((4-formyl-6-methoxypyridin-3-yloxy)methyl)picolinonitrile]", "delta p50%": "+ (a delta p50% of between 0 and 29)"},
      {"smiles": "COc1cc(C2OCCO2)c(OCc2cn3cccc(C(N)=O)c3n2)cn1", "note": "[Compound 68, 2-((4-(1,3-dioxolan-2-yl)-6-methoxypyridin-3-yloxy)methyl)imidazo[1,2-a]pyridine-8-carboxamide]", "delta p50%": "+ (a delta p50% of between 0 and 29)"},
      {"smiles": "CNC(=O)c1cccn2cc(COc3cnc(OC)cc3C3OCCO3)nc12", "note": "[Compound 69, 2-((4-(1,3-dioxolan-2-yl)-6-methoxypyridin-3-yloxy)methyl)-N-methylimidazo[1,2-a]pyridine-8-carboxamide]", "delta p50%": "+ (a delta p50% of between 0 and 29)"},
      {"smiles": "COc1cc(C=O)c(OCc2cncc(-c3ccn[nH]3)c2)cn1", "note": "[Compound 70, 5-((5-(1H-pyrazol-5-yl)pyridin-3-yl)methoxy)-2-methoxyisonicotinaldehyde]", "delta p50%": "+ (a delta p50% of between 0 and 29)"},
      {"smiles": "COc1cc(C=O)c(OCc2cnccc2-c2ccn[nH]2)cn1", "note": "[Compound 71, 5-((4-(1H-pyrazol-5-yl)pyridin-3-yl)methoxy)-2-methoxyisonicotinaldehyde]", "delta p50%": "+ (a delta p50% of between 0 and 29)"},
      {"smiles": "CNC(=O)c1cccn2cc(COc3cnc(OC)cc3C(O)O)nc12", "note": "[Compound 72, 2-((4-(dihydroxymethyl)-6-methoxypyridin-3-yloxy)methyl)-N-methylimidazo[1,2-a]pyridine-8-carboxamide]", "delta p50%": "+ (a delta p50% of between 0 and 29)"},
      {"smiles": "COc1cc(C(O)O)c(OCc2cn3cccc(C(N)=O)c3n2)cn1", "note": "[Compound 73, 2-((4-(dihydroxymethyl)-6-methoxypyridin-3-yloxy)methyl)imidazo[1,2-a]pyridine-8-carboxamide]", "delta p50%": "+ (a delta p50% of between 0 and 29)"},
      {"smiles": "COc1cc(C=O)c(OCc2cncc(-c3ccn(C)n3)c2)cn1", "note": "[Compound 75, 2-methoxy-5-((5-(1-methyl-1H-pyrazol-3-yl)pyridin-3-yl)methoxy)isonicotinaldehyde]", "delta p50%": "+ (a delta p50% of between 0 and 29)"},
      {"smiles": "COc1cc(C=O)c(OCc2cncc(-c3cn[nH]c3)c2)cn1", "note": "[Compound 76, 5-((5-(1H-pyrazol-4-yl)pyridin-3-yl)methoxy)-2-methoxyisonicotinaldehyde]", "delta p50%": "+ (a delta p50% of between 0 and 29)"},
      {"smiles": "COc1cc(C=O)c(OCc2cncc(-c3cnn(C)c3)c2)cn1", "note": "[Compound 77, 2-methoxy-5-((5-(1-methyl-1H-pyrazol-4-yl)pyridin-3-yl)methoxy)isonicotinaldehyde]", "delta p50%": "+ (a delta p50% of between 0 and 29)"},
      {"smiles": "COC(=O)c1cncc(COc2cnc(OC)cc2C=O)c1", "note": "[Compound 78, methyl 5-((4-formyl-6-methoxypyridin-3-yloxy)methyl)nicotinate]", "delta p50%": "+ (a delta p50% of between 0 and 29)"},
      {"smiles": "Cc1ccc(OCc2cnc3ccccc3c2)c(C=O)n1", "note": "[Compound 81, 6-methyl-3-(quinolin-3-ylmethoxy)picolinaldehyde]", "delta p50%": "+ (a delta p50% of between 0 and 29)"}
    ]},
    {"biological_target": "T1, purified Hemoglobin S (HbS)", "assay": "Modulation of hemoglobin oxygen affinity: oxygen equilibrium curves (HEMOX) in purified HbS", "assay_type": "biochemical, human (homozygous sickle cell patients)", "settings": "compound at 100 μM; 25 μM purified HbS, 45 min at 37° C.", "protocol": "as §1, §2", "values": [
      {"smiles": "O=Cc1cccnc1CCc1cccn2ccnc12", "note": "[Compound 12, 2-(2-(imidazo[1,2-a]pyridin-8-yl)ethyl)nicotinaldehyde]", "delta p50%": "+ (a delta p50% of between 0 and 29)"},
      {"smiles": "COc1cc(C=O)c(OCc2ccc(C(F)(F)F)nc2)cn1", "note": "[Compound 40, 2-methoxy-5-((6-(trifluoromethyl)pyridin-3-yl)methoxy)isonicotinaldehyde]", "delta p50%": "+ (a delta p50% of between 0 and 29)"},
      {"smiles": "COc1cc(C=O)c(OCc2ccncc2Br)cn1", "note": "[Compound 48, 5-((3-bromopyridin-4-yl)methoxy)-2-methoxyisonicotinaldehyde]", "delta p50%": "++ (a delta p50% of between 30 and 50)"},
      {"smiles": "COc1cc(C=O)c(OCc2cn3cc(C(F)(F)F)ccc3n2)cn1", "note": "[Compound 52, 2-methoxy-5-((6-(trifluoromethyl)imidazo[1,2-a]pyridin-2-yl)methoxy)isonicotinaldehyde]", "delta p50%": "+ (a delta p50% of between 0 and 29)"},
      {"smiles": "COc1cc(C=O)c(OCc2ccn(C)c(=O)c2)cn1", "note": "[Compound 54, 2-methoxy-5-((1-methyl-2-oxo-1,2-dihydropyridin-4-yl)methoxy)isonicotinaldehyde]", "delta p50%": "++ (a delta p50% of between 30 and 50)"},
      {"smiles": "COc1cc(C=O)c(OCc2nc3ccccn3c2Br)cn1", "note": "[Compound 55, 5-((3-bromoimidazo[1,2-a]pyridin-2-yl)methoxy)-2-methoxyisonicotinaldehyde]", "delta p50%": "+ (a delta p50% of between 0 and 29)"},
      {"smiles": "COc1cc(C=O)c(OCc2cn3cc(Br)ccc3n2)cn1", "note": "[Compound 56, 5-((6-bromoimidazo[1,2-a]pyridin-2-yl)methoxy)-2-methoxyisonicotinaldehyde]", "delta p50%": "+ (a delta p50% of between 0 and 29)"},
      {"smiles": "COc1cc(C=O)c(OCc2cn3cccc(Br)c3n2)cn1", "note": "[Compound 57, 5-((8-bromoimidazo[1,2-a]pyridin-2-yl)methoxy)-2-methoxyisonicotinaldehyde]", "delta p50%": "++ (a delta p50% of between 30 and 50)"}
    ]}
  ]
}
